Experimental data taken from patent publication US12629356B2, “Expansion of tumor infiltrating lymphocytes with potassium channel agonists and therapeutic uses thereof” (Iovance Biotherapeutics, Inc., priority 2017, dated 2026).

How the values were obtained:
[1] = tested on: normal donor PBMC lines and TIL lines from melanoma tumors; assay: Kinetic expression of KCa3.1 after activation with anti-CD3 and anti-CD28 with or without SKA-31 (flow cytometry); format: cell-based, human; details: 50 nM SKA-31; PBMCs and melanoma TILs stimulated with anti-CD3 and anti-CD28; day 1, 3 and 7
Protocol: To study kinetic expression of KCa3.1, wo normal donor PBMC lines and three TIL lines from melanoma tumors were activated with anti-CD3 and anti-CD28 with the KCa3.1 agonist SKA-31 (Formula (2)). PBMCs and TILs at day 0 (baseline) were used as controls for KCa3.1 expression. Normal donor PBMCs and three TIL lines (M004, M10^11, and M1023) were thawed and cultured in TIL culture media (TIL CM) containing RPMI 1640 (Thermo Fisher Scientific, Waltham, MA, USA), 1 mM Glutamax (Thermo Fisher Scientific), 1 mM pyruvate (Thermo Fisher Scientific), 50 μM 2-mercaptoethanol (Thermo Fisher Scientific), and 1× Pen-Strep (Thermo Fisher Scientific), and 10% human AB serum (Gemini Bio-Products, West Sacramento, CA, USA) with IL-2 (6000 IU/mL) (CellGenix Inc., Portsmouth, NH, USA). On the next day, PBMCs were activated with anti-CD3 (Clone CLB-T3/4.E, Cell Sciences) ([…]) and anti-CD28 (Clone 28.2, BioLegend, San Diego, CA, USA) (500 ng/mL) with or without 50 nM SKA-31 (Sigma-Aldrich Co., St. Louis, MO, USA). […] Cells were harvested on day 1, 3, and 7 following activation, stained with anti-CD3 (clone SP34-2, BD Biosciences), anti-CD8 (clone RPA-T8, BioLegend), anti-KCa3.1 (Polyclonal, Alomone Lab), and AmCyan (Thermo Fisher Scientific), and analyzed by flow cytometry using a BD FACS CANTO II system.

Melanoma TIL lines [2] = assay: Fold expansion of melanoma TIL lines in 14-day REP with or without SKA-31; format: cell-based, human; details: ten melanoma TIL lines; 50 mM SKA-31 (so in the source); day 14 of REP; p=0.002
Protocol: (§1) Melanoma TIL lines were propagated using a REP protocol for 14 days with or without the KCa3.1 agonist SKA-31 (Formula (2)). Ten TIL lines (M004, M10^11, M1017, M1020, M1021, M1025, M1030, M1034, M1036, and M1045) were propagated with REP with anti-CD3 OKT-3 antibody (Miltenyi Biotech) (30 ng/mL) using irradiated PBMC feeder cells at ratio of TILs to feeder cells of 1 to 100 in G-REX 24 well plates (Wilson Wolf Manufacturing). Approximately 1×10^6 TILs were used per G-REX 24 well on day 0 in 8 mL of TIL REP media (TIL CM and Aim V media (Thermo Fisher Scientific) at a 1 to 1 ratio) with or without 50 mM of SKA-31. On day 2, the cultures were supplemented with IL-2 (6000 IU/mL). Half of the media was replaced with fresh AIMV media on day 5 with or without 50 mM SKA-31. The REP cultures were supplemented with IL-2 (3000 IU/mL) on day 9 and 12 respectively. On day 14, TTLs were counted and calculated for fold expansion.

Melanoma TIL lines [3] = assay: Phenotyping of melanoma TILs (CD27, CD28) at end of REP with or without SKA-31; format: cell-based, human; details: ten melanoma TIL lines, end of 14-day REP, vs TILs without SKA-31
Protocol: as §1
Ten melanoma TIL lines were expanded with the REP protocol for 14 days with or without the KCa3.1 agonist SKA-31 (Formula (2)) as in Example 2. At the end of each REP, TILs were harvested and phenotyped with anti-CD3 (clone SP34-2, BD Biosciences), anti-CD28 (clone CD28.2, BD biosciences), and anti-CD27 (M-T271, BD Biosciences) antibodies.

[4] = tested on: pre-REP TILs from tumor fragments; assay: CCR7+ and CD25+ expression in pre-REP TILs grown with IL-2 alone or IL-2 with SKA-31 (flow cytometry); format: cell-based; details: vs no treatment
Protocol: Three tumors (kidney, estrogen receptor positive (ER^+) breast, and melanoma) were grown with either IL-2 alone or IL-2 with SKA-31 […] to evaluate the performance of a KCa3.1 agonist in the pre-REP stage. The resected tumor samples were cut into 3-5 mm^2 fragments. Four to eight tumor fragments were placed into GREX-10 flask containing TIL CM (previously described) with IL-2 (6000 IU/mL) with or without 100 nM SKA-31. The culture was supplemented with IL-2 every 5 days until harvested. After three weeks, TIL was collected, counted, and stained with anti-CD8 (clone RPA-T8, BioLegend), anti-CD4 (OKT-4, BioLegend), anti-CCR7 (BioLegend G043H7), or AmCyan (Thermo Fisher Scientific), and analyzed by flow cytometry using a BD FACS CANTO II system. The results of CCR7 expression in the three tumor fragments are presented in FIG. 13, with representative flow cytometry results for one of the tumors presented in FIG. 14.
Further evidence that SKA-31 enhances expression of CD25 and CCR7 was also obtained. Pre-REP TIL were grown with either IL-2 (6000 IU/mL) alone or with SKA-31 and were analyzed after 21 days (n=14; tumor types: breast cancer (8), melanoma (3), kidney (2), ovarian (1)). CCR7^+ expression was assessed by flow cytometry in CD4^+ (FIG. 15, top) and CD8^+subsets (FIG. 15, bottom). CD25^+expression was assessed by flow cytometry in CD4^+(FIG. 17, top) and CD8′ subsets (FIG. 17, bottom) (n=16, breast cancer (8), melanoma (3), kidney (3), ovarian (2)). In both cases, p values represent the difference between no treatment and SKA-31 using student's unpaired T test, and p values<0.05 are considered as statistically significant.

[5] = tested on: pre-REP TILs from ovarian and breast cancer tumor fragments; assay: Absolute cell counts of pre-REP TILs from ovarian and breast tumor fragments with or without SKA-31; format: cell-based; details: 50 nM SKA-31 with IL-2, three weeks, vs IL-2 alone
Protocol: Tumor fragments from ovarian and breast cancer (triple positive, ER^+/PR^+/HER2^+) tumors were grown in a pre-REP stage with either IL-2 alone or IL-2 with SKA-31 (Formula (2)) at a concentration of 50 nM. The resected tumor samples were cut into 3-5 mm^2 fragments. Four to eight tumor fragments were placed into GREX-10 flasks containing TIL CM (previously described) with IL-2 (6000 IU/mL). The culture was supplemented with IL-2 every 5 days until harvested. After three weeks, TILs were collected, counted, and stained with anti-CD8 antibody (clone RPA-T8, BioLegend), anti-CD4 antibody (OKT-4, BioLegend), anti-CD3 antibody (clone SP34-2, BD Biosciences), and AmCyan (Thermo Fisher Scientific), and analyzed by flow cytometry using a BD FACS CANTO II system.

[6] = tested on: TILs co-cultured with melanoma tumor cells; assay: IFN-γ release (ELISA) from TILs prepared with and without SKA-31 co-cultured with melanoma tumor cells; format: cell-based; details: 24 hours co-culture, 3:1 E:T ratio, vs TILs prepared without SKA-31
Protocol: FIG. 21 illustrates the results of IFN-γ release as measured by enzyme-linked immunosorbent assay (ELISA). TILs prepared with and without SKA-31 were co-cultured with melanoma tumor cells for 24 hours at a TIL:melanoma cell ratio of 3:1 (i.e., a 3:1 effector:target or E:T ratio). Blocking of the TCR MHC-I was performed using 80 μg/mL of antibody clone W6/32 (BioLegend).

melanoma cells = assay: Tumor cell killing by TILs prepared with and without SKA-31 (caspase-3 marker); format: cell-based; details: different E:T ratios
[7] = breast (ER+/PR+/HER2+) tumor fragments

Nc1nc2c(ccc3ccccc32)s1 [SKA-31, naphtho[1,2-d]thiazol-2-ylamine]
KCa3.1 expression [1]: did not alter KCa3.1 expression | expansion of TILs in REP relative to control without KCa3.1 agonist (Melanoma TIL lines [2]): 1.42 fold | CD8+CD27+CD28+ T cell subset (Melanoma TIL lines [3]; p=0.002): greater expansion | CD8+CD27+ T cell subset (Melanoma TIL lines [3]; p=0.04): greater expansion | CD8+CD28+ T cell subset (Melanoma TIL lines [3]; p=0.04): greater expansion | CCR7+ expression in CD4+ and CD8+ subsets ([4]; pre-REP TIL, IL-2 6000 IU/mL with SKA-31, 21 days, n=14 tumors): enhances | CD25+ expression in CD4+ and CD8+ subsets ([4]; pre-REP TIL, IL-2 6000 IU/mL with SKA-31, 21 days, n=16 tumors): enhances | CCR7+ expression in CD4+ and CD8+ TILs ([4]; three tumor fragments (kidney, ER+ breast, melanoma), pre-REP, 100 nM SKA-31 with IL-2, three weeks): increased | absolute cell counts, CD3^mCD4^m TILs [5, 7]: increased | absolute cell counts, CD3^mCD8^m TILs [5, 7]: increased | absolute cell counts, CD3^mCD8^m TILs ([5]; ovarian tumor fragments): increased | IFN-γ release ([6]; one TIL cell line): statistically significant increase | IFN-γ release ([6]; second TIL cell line): no adverse effect | tumor killing (caspase-3) (melanoma cells; M1032 TIL line): no adverse effects | tumor killing (caspase-3) (melanoma cells; M1041 TIL line): no adverse effects
